Source: ChEMBL document CHEMBL5046279, “Discovery of a Partial Glucokinase Activator Clinical Candidate: Diethyl ((3-(3-((5-(Azetidine-1-carbonyl)pyrazin-2-yl)oxy)-5-isopropoxybenzamido)-1H-pyrazol-1-yl)methyl)phosphonate (BMS-820132)” (J Med Chem, 2022)

Columns and labels:
[1] = Half life in Sprague-Dawley rat at 2.5 mg/kg, po measured upto 24 hrs by LC-MS/MS analysis; format: ADME, organism-based; details: in vivo
Mus musculus = assay: Anti-hyperglycemic activity in C57BL/6J DIO mouse assessed as reduction in plasma glucose AUC at 3 umol/kg, po measured after 120 mins by OGTT; format: functional; set-up: scale not given: the % may be the effect or the level left; details: dose 3 µM/Kg, 2 h, at 3 µmol/kg
Salmonella typhimurium = assay: Mutagenicity in Salmonella typhimurium TA1535 at 5000 ug/plate in presence of S9 fraction by Ames test; format: toxicity, organism-based; details: salmonella enterica subsp. enterica serovar typhimurium, dose 5000 µg

CCOP(=O)(Cn1ccc(NC(=O)c2cc(Oc3cnc(C(=O)N4CCC4)cn3)cc(OC(C)C)c2)n1)OCC
half-life [1]: 54 min
Activity (Mus musculus): -31%
Activity (Salmonella typhimurium): Non-Toxic
